Results: ChEMBL document CHEMBL1156829 (Proc Natl Acad Sci U S A, 2008)

Experiments:
[1] = NOVARTIS: Cytotoxicity against human hepatocellular carcinoma cell line (Huh7); type: toxicity, cell-based, Huh-7; conditions: Huh7 cells (hepatocellular carcinoma cell line)
Plasmodium falciparum [2] = experiment: NOVARTIS: Inhibition of Plasmodium falciparum W2 (drug-resistant) proliferation in erythrocyte-based infection assay; type: functional, organism-based; conditions: Plasmodium falciparum, W2; read-out: EC50
Plasmodium falciparum [3] = experiment: NOVARTIS: Inhibition of Plasmodium falciparum 3D7 (drug-susceptible) proliferation in erythrocyte-based infection assay; type: functional, organism-based; conditions: Plasmodium falciparum, 3D7

Row | Structure (SMILES) | CC50 [1] | EC50 (Plasmodium falciparum [2]) | EC50 (Plasmodium falciparum [3])
1 | O=C1CN(C(=O)CCC2CCCCC2)C(c2ccc(F)cc2)c2cc(F)ccc2N1 (configuration not stated) | 64.4 µM | 365 nM | 566 nM
2 | CC(=O)N(C1=C(N(C)C)C(=O)c2ccccc2C1=O)c1ccc(F)c(F)c1 | 2.36 µM | 41.1 nM | 16.1 nM
3 | O=C(Nc1ccccc1F)NC1CC2CCCC(C1)N2CCc1ccccc1 (configuration not stated) | > 10.6 µM | 140 nM | 440 nM
4 | OC(CNCC1CCCO1)Cn1c2ccc(Br)cc2c2cc(Br)ccc21 (configuration not stated) | 20.3 µM | 99 nM | 261 nM
5 | CCCC(C(=O)NC(C)(C)C)N1C(=O)c2cc(NC(C)=O)ccc2NC(=O)[C@@H]1c1ccccc1 (some centres not stated) | 5.45 µM | > 790 nM | > 65.6 nM
6 | Oc1ccc(Cl)cc1C1CC(c2ccc(Cl)cc2)=NC(c2ccc(Cl)cc2)N1 (configuration not stated) | 34.7 µM | 783 nM | 813 nM
7 | CCOC(=O)C(=O)N1c2ccc(C)cc2C(C)(c2ccccc2)CC1(C)C (configuration not stated) | > 10 µM | > 1250 nM | 2130 nM
8 | Cc1cc(C)cc(NC(=S)NCCO)c1 | > 100 µM | 513 nM | 3860 nM
9 | Cc1nnc(SCC(=O)NCc2ccco2)n1-c1ccc(F)cc1 | > 100 µM | 459 nM | > 8950 nM
10 | CC1(c2ccccc2)CC(c2ccccc2)=Nc2nonc2N1 (configuration not stated) | > 10 µM | 1170 nM | 586 nM
11 | O=C(c1ccc([N+](=O)[O-])o1)N1CCN(c2cccc(Cl)c2)CC1 | > 100 µM | 1040 nM | 6330 nM
12 | CCCOC(=O)C1=C(C)NC2=C(C(=O)CC(c3ccc(OC)c(OC)c3)C2)C1c1ccccc1F (configuration not stated) | > 100 µM | 5.41 nM | 6.71 nM
13 | COC(=O)C1=C(O)/C(=C\c2cc(C)n(-c3ccccc3F)c2C)N=C1C | > 10 µM | > 1250 nM | > 974 nM
14 | O=C(c1ccc(-n2c(SCc3ccc(Cl)cc3)nc3ccccc3c2=O)cc1)N1CCOCC1 | > 100 µM | 2280 nM | > 12500 nM
15 | COc1ccccc1C(=O)NN=C(C)c1cccnc1 | > 10 µM | > 602 nM | > 1250 nM
16 | CN1CCN(c2nc(NN=Cc3cccc(Cl)c3)nc(Nc3ccc([N+](=O)[O-])cc3)n2)CC1 | 43.4 µM | 290 nM | 500 nM
17 | CCCCCOC(=O)C1=C(C)NC2=C(C(=O)CCC2)C1c1ccc(OC)c(Br)c1 (configuration not stated) | > 100 µM | 650 nM | 615 nM

Row | Structure (SMILES) | CC50 [1] | EC50 (Plasmodium falciparum [2]) | EC50 (Plasmodium falciparum [3])
18 | CCOC(=O)C(=O)N1c2ccccc2-c2c(ssc2=S)C1(C)C | > 100 µM | 73.5 nM | 91.6 nM
19 | O=C1C(NC2CCCC2)=C(N2CCCCC2)C(=O)c2ccccc21 | 10.1 µM | 34.2 nM | 22.4 nM
20 | COC(=O)c1c(-c2c(F)cccc2Cl)noc1C=CNc1ccccc1 | 73.7 µM | 6980 nM | 11400 nM
21 | COc1cc(/C=C(\C#N)c2nc3ccccc3[nH]2)ccc1OCc1ccccc1 | > 10 µM | 1210 nM | 728 nM
22 | CCOC(=O)c1c(C)[nH]c(C)c1S(=O)(=O)N1CCCC(C(=O)N2CCN(c3cccc(C)c3C)CC2)C1 (configuration not stated) | > 100 µM | > 12500 nM | 5260 nM
23 | CC(C)(C)c1ccc(-c2c[n+](-c3ccccc3)c3n2CCCS3)cc1 | 7.87 µM | 313 nM | 221 nM
24 | O=C1CSc2ccccc2N1 | > 100 µM | 1080 nM | > 10600 nM
25 | Cc1ccn2c(NC(C)(C)CC(C)(C)C)c(-c3ccccc3OC(=O)c3ccco3)nc2c1 | > 10 µM | 34.1 nM | 828 nM
26 | CCOC(=O)c1c(NC(=O)C(C)Sc2nnc(CNC(=O)c3ccco3)n2-c2cccc(Cl)c2)sc2c1CCCC2 (configuration not stated) | > 100 µM | 424 nM | > 12500 nM
27 | Cn1c(=NC(=O)c2ccc(S(=O)(=O)N3CCCCC3)cc2)sc2cc(Cl)ccc21 | > 10 µM | 26.7 nM | > 1250 nM
28 | CCOc1ccc2nc(SCc3nc(N)nc(N4CCOCC4)n3)sc2c1 | > 10 µM | > 1250 nM | > 627 nM
29 | COc1ccc(CCN2C(=S)NC3c4cccc(OC)c4OC2(C)C3C(=O)Nc2ccc(C)cc2C)cc1OC (configuration not stated) | > 100 µM | 68.7 nM | 320 nM
30 | C[n+]1ccn(-c2ccc(C(=O)c3ccc(-n4cc[n+](C)c4)cc3)cc2)c1 | > 10 µM | 29.4 nM | 33.5 nM
31 | COCCOC(=O)C1=C(C)NC2=C(C(=O)CC(c3ccc(OC)c(OC)c3)C2)C1c1ccc(F)cc1 (configuration not stated) | 46.8 µM | 17.7 nM | 38.2 nM
32 | Cc1ccc2[nH]c3c(NCCN(C(C)C)C(C)C)ncnc3c2c1 | 16.3 µM | 420 nM | 306 nM
33 | COCCN1C(=O)C(O)=C(C(=O)c2ccccc2)C1c1ccccc1[N+](=O)[O-] (configuration not stated) | > 100 µM | 1710 nM | > 12500 nM
34 | CCOC(=O)c1c(N=Cc2cccc(OC)c2O)sc2c1CCN(C)C2 | > 100 µM | 744 nM | > 12500 nM
